Among the data in US20170008888A1 (KYORIN PHARMACEUTICAL CO., LTD., priority 2014, published 2017) are EC50 and inhibition values, retold here.

Read-outs that look alike come from different tables or passages of the source.

Format in all cases: cell-based
For test [1], the system named is immortalized normal human bronchial epithelial BEAS-2B cells. As to the kind of experiment: IL-17A- or IL-17F-mediated cytokine response by BEAS-2B cells. To be noted: 48 h. How it is done: The virally immortalized, normal human bronchial epithelial cell line BEAS-2B was purchased from ATCC (Manassas, Va.). Primary bronchial epithelial cells isolated from a patient diagnosed with asthma were obtained from Lonza (Allendale, N.J.). Both cells were maintained in complete Bronchial Epithelial Cell Growth Medium (BEGM) (Lonza). Cells were seeded at 1e5 cells/ml and incubated at 37° C. in a humidified atmosphere at 5% CO2 overnight to adhere. Cells were pre-treated with test compounds (10 μM down by ⅕ in a 3- or 4-point serial dilution series) for 1 h at 37° C. in a humidified atmosphere at 5% CO2. DMSO at a final concentration of 0.1% served as the non-inhibited control. Budesonide (Selleck Chemicals, Houston, Tex.), a clinically approved glucocorticoid steroid for the treatment of asthma, was tested as a positive control at 0.25 μM. Cells were stimulated with 50 ng/ml of either human recombinant IL-17A or IL-17F (eBioscience, San Diego, Calif.), for 48 h. Supernatant was then collected and analyzed for cytokine concentrations using the Bio-Plex Pro Human Cytokine 17-Plex Panel (Bio-Rad Laboratories, Hercules, Calif.) according to the manufacturer's instructions. Magnetic beads were measured on the Bio-Plex MAGPIX multiplex reader instrument using the accompanying xPONENT 4.2 acquisition software (Bio-Rad Laboratories). Data were analyzed via the Bio-Plex Manager software v6.1 (Bio-Rad Laboratories). For the primary asthmatic bronchial epithelial cells, five (+IL-17F) to thirteen (+IL-17A) cytokines were in range of detection under the conditions used. […] Select cytokines were analyzed for comparison using the BEAS-2B cell line.

Test [2] concerns diseased primary human lung fibroblasts. Kind of test: Cytokine response by primary diseased human lung fibroblasts stimulated with IL-17A or IL-17F. To be noted: Fibroblast, 48 h. The protocol: Primary lung fibroblasts isolated from a patient diagnosed with asthma were obtained from Lonza (Allendale, N.J.) and maintained in FGM-2 fibroblast growth medium (Lonza). Cells were seeded at 1e5 cells/ml and incubated at 37° C. in a humidified atmosphere at 5% CO2 overnight to adhere. Cells were pre-treated with test compounds (10 μM down by ⅕ in a 3- or 4-point serial dilution series) for 1 h at 37° C. in a humidified atmosphere at 5% CO2. DMSO at a final concentration of 0.1% served as the non-inhibited control. Cells were stimulated with 50 ng/ml of either human recombinant IL-17A or IL-17F (eBioscience, San Diego, Calif.), for 48 h. Supernatant was then collected and analyzed for cytokine concentrations using the Bio-Plex Pro Human Cytokine 17-Plex Panel (Bio-Rad Laboratories, Hercules, Calif.) according to the manufacturer's instructions. Magnetic beads were measured on the Bio-Plex MAGPIX multiplex reader instrument using the accompanying xPONENT 4.2 acquisition software (Bio-Rad Laboratories). Data were analyzed via the Bio-Plex Manager software v6.1 (Bio-Rad Laboratories). Only four (+IL-17F) to six (+IL-17A) cytokines were in range of detection under the conditions used.
G-CSF concentrations were below the limit of detection when cells were stimulated with IL-17F.

The next test deals with human CD4+ T cells. As to the kind of experiment: Cytokines produced by human CD4+ T cells stimulated with PMA/ionomycin. To be noted: 10 μM compound, PMA/ionomycin 20 h. From the text:
Freshly isolated human peripheral blood mononuclear cells (PBMCs) were purchased from Astarte Biologics (Redmond, Wash.). CD4+ T cells were isolated from the PBMCs using the EasySep Negative Selection Human CD4+ T Cell Enrichment Kit (Stemcell Technologies, Vancouver, Canada) according to manufacturer's instructions briefly as follows: Unwanted cells were specifically labeled with a cocktail of bispecific tetrameric antibody complexes (TAC) against dextran and cell surface antigens (CD8, CD14, CD16, CD19, CD20, CD36, CD56, CD66b, CD123, TCRγ/δ, glycophorin A). Labeled cells were then targeted for removal by incubation with dextran-coated magnetic particles, leaving the desired CD4+ T cells.
Human CD4+ T cells, isolated as shown in protocol A, were seeded at 2e6 cells/ml in RPMI 1640 containing 10% (v/v) charcoal-dextran treated, heat inactivated FBS (Omega Scientific, Tarzana, Calif.), 0.05 mM 2-Mercaptoethanol (Sigma-Aldrich, St. Louis, Mo.), and 1×Pen/Strep Amphotericin B (Lonza, Allendale, N.J.). Cells were pre-treated with test compounds (10 μM) for 1 h at 37° C. in a humidified atmosphere at 5% CO2. Cells were then stimulated with 50 ng/ml phorbol 12-myristate 13-acetate (PMA)(Sigma-Aldrich, St. Louis, Mo.)+1 μg/ml ionomycin (Life Technologies, Grand Island, N.Y.) for 20 h at 37° C. in a humidified atmosphere at 5% CO2. Supernatant was collected and analyzed using Bio-Plex Pro Human Th17 Cytokine 15-Plex Panel (Bio-Rad Laboratories, Hercules, Calif.) as per manufacturer's protocols. Magnetic beads were read on the Bio-Plex MAGPIX multiplex reader instrument using the accompanying xPONENT 4.2 acquisition software (Bio-Rad Laboratories, Hercules, Calif.). Data were analyzed via the Bio-Plex Manager software v6.1 (Bio-Rad Laboratories).
IL-1β, IL-2, IL-7, and IL-12 (p70) were below the limit of detection under conditions used. The concentrations of the observed analytes of the DMSO control, from top to bottom as listed, are as follows: 31, 585, 24178, 22, 48, 91, 728, 94, 156, 705, 15, 1045, 5501 pg/ml.

The mark [3] stands for this setting: +50 ng/ml IL-17A, read-out: EC50 values (μM), IL-6.
[4] abbreviates: +50 ng/ml IL-17A, read-out: EC50 values (μM), IL-8.
Where [5] appears, read: +50 ng/ml IL-17F, read-out: EC50 values (μM), IL-6.
Where [6] appears, read: +50 ng/ml IL-17F, read-out: EC50 values (μM), IL-8.

Broadly, the EC50 is the concentration at which the effect is half-maximal. The term inhibition denotes the change of the read-out against control, counted positive when it falls. Turning to `CCOc1cc(C(=O)N2CCC(N3CCN(C)CC3)CC2)ccc1Nc1cc2c(cn1)N(C)C(=O)c1ccccc1N2C` [Compound 61], the half-maximal effective concentration (EC50) in test [1] (setting [3]) was found to be 0.68 µM; in test [1] (setting [4]), 0.42 µM; in test [1] (setting [5]) it was 0.42 µM; in test [1] (setting [6]), 0.51 µM; in test [2] (+50 ng/ml IL-17A, read-out: EC50 values (μM), G-CSF), 1.99 µM; in test [2] (setting [3]), 6.98 µM. Moreover, the EC50 amounted to 0.54 µM in test [2] (setting [4]); 1.33 µM in test [2] (+50 ng/ml IL-17A, read-out: EC50 values (μM), MCP-1); 4.45 µM in test [2] (setting [5]); 0.45 µM in test [2] (setting [6]); 1.57 µM in test [2] (+50 ng/ml IL-17F, read-out: EC50 values (μM), MCP-1). Further, the inhibition at 10 µM in the test on human CD4+ T cells (read-out: Percent inhibition of G-CSF (relative to DMSO control)) is 25.3%; in the test on human CD4+ T cells (read-out: Percent inhibition of GM-CSF (relative to DMSO control)), 96.6%; in the test with human CD4+ T cells (read-out: Percent inhibition of IFNγ (relative to DMSO control)) it was -11.8%; with human CD4+ T cells (read-out: Percent inhibition of IL-4 (relative to DMSO control)), -7.7%; in the test on human CD4+ T cells (read-out: Percent inhibition of IL-5 (relative to DMSO control)), 21.9%; in the test on human CD4+ T cells (read-out: Percent inhibition of IL-6 (relative to DMSO control)), 85.8%. The inhibition at 10 µM is 97.6% in the test on human CD4+ T cells (read-out: Percent inhibition of IL-10 (relative to DMSO control)); 0.6% in the test with human CD4+ T cells (read-out: Percent inhibition of IL-13 (relative to DMSO control)); 45.4% with human CD4+ T cells (read-out: Percent inhibition of IL-17A (relative to DMSO control)); 65.5% in the test on human CD4+ T cells (read-out: Percent inhibition of MCP-1 (relative to DMSO control)); 59.2% with human CD4+ T cells (read-out: Percent inhibition of MIP-1β (relative to DMSO control)); 50.9% in the test with human CD4+ T cells (read-out: Percent inhibition of TNFα (relative to DMSO control)).
